Measured values as given in patent publication US10106524B2, “2,3,4,5-tetrahydropyridin-6-amine and 3,4-dihydro-2H-pyrrol-5-amine compound inhibitors of beta-secretase” (Janssen Pharmaceutica NV, priority 2015, dated 2018).

Tests used:
[1] = target: T1, recombinant BACE2 protein (Homo sapiens, UniProt Q9Y5Z0); assay: BACE2 biochemical FRET based assay; conditions: BACE2 0.4 μg/nil, 450 minutes, 10 μM substrate, pH 5.0; read-out: Biochemical FRET based assay pIC50 (BACE2) (converted)
T1 construct: recombinant BACE2 protein in a final concentration of 0.4 μg/nil
T1 sequence (Q9Y5Z0 63-518): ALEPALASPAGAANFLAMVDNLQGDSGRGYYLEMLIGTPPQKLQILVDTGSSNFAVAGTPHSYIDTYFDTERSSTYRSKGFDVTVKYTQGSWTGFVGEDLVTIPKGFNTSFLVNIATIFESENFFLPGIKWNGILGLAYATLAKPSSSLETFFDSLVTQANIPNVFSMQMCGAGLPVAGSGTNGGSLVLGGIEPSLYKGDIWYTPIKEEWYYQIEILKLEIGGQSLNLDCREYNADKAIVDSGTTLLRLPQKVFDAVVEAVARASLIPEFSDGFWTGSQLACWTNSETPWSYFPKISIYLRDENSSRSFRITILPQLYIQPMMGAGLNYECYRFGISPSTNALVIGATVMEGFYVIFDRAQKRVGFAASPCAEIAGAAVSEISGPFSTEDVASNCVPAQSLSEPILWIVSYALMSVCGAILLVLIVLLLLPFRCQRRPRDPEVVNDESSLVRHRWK
From the text: BACE2 Biochemical FRET Based Assay
(§1) This assay is a Fluorescence Resonance Energy Transfer Assay (FRET) based assay. The substrate for this assay contains the ‘Swedish’ Lys-Met/Asn-Leu mutation of the amyloid precursor protein (APP) beta-secretase cleavage site. This substrate also contains two fluorophores: (7-methoxycoumarin-4-yl) acetic acid (Mca) is a fluorescent donor with excitation wavelength at 320 nm and emission at 405 nm and 2,4-Dinitrophenyl (Dnp) is a proprietary quencher acceptor. […] Upon cleavage by the beta-secretase, the fluorophore Mca is separated from the quenching group Dnp, restoring the full fluorescence yield of the donor. The increase in fluorescence is linearly related to the rate of proteolysis.
Briefly in a 384-well format recombinant BACE2 protein in a final concentration of […] is incubated for 450 minutes at room temperature with 10 μM substrate in incubation buffer (50 mM Citrate buffer pH 5.0, 0.05% PEG, no DMSO) in the absence or presence of compound. Next the amount of proteolysis is directly measured by fluorescence measurement at T=0 and T=450 (excitation at 320 nm and emission at 405 nm). Results are expressed in RFU (Relative Fluorescence Units), as difference between T450 and T0.
(§2) A best-fit curve is fitted by a minimum sum of squares method to the plot of % Controlmin versus compound concentration. From this an IC50 value (inhibitory concentration causing 50% inhibition of activity) can be obtained.

[2] = target: T2, recombinant BACE1 protein (Homo sapiens, UniProt P56817); assay: BACE1 biochemical FRET based assay - Method 2; conditions: BACE1 0.04 μg/ml, 450 minutes, 20 μM substrate, pH 5.0; read-out: Biochemical FRET based assay- Method 2 pIC50 (converted)
T2 construct: recombinant BACE1 protein in a final concentration of 1 μg/ml
T2 sequence (P56817 46-501): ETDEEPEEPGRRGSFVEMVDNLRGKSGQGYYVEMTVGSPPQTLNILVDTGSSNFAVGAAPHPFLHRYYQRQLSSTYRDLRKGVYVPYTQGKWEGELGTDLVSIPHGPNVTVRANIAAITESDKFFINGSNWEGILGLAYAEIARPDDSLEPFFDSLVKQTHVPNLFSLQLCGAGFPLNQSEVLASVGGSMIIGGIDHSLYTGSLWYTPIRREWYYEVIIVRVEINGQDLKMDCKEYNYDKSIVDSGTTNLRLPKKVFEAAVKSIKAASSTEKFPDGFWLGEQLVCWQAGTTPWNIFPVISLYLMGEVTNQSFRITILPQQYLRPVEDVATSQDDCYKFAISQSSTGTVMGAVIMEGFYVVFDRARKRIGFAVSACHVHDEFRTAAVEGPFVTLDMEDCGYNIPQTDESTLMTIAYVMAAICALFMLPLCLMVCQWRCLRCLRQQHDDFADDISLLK
From the text: BACE1 Biochemical FRET Based Assay
as §1, with “this assay is an APP derived 13 amino acids peptide that contains the” for “this assay contains the”, “cleavage by BACE1, the fluorophore” for “cleavage by the beta-secretase, the fluorophore”
Briefly in a 384-well format recombinant BACE1 protein in a final concentration of 0.04 μg/ml is incubated for 450 minutes at room temperature with 20 μM substrate in incubation buffer (50 mM Citrate buffer pH 5.0, 0.05% PEG) in the presence of compound or DMSO. Next the amount of proteolysis is directly measured by fluorescence measurement (excitation at 320 nm and emission at 405 nm) at different incubation times (0, 30, 60, 90, 120 and 450 min). For every experiment a time curve (every 30 min between 0 min and 120 min) is used to determine the time where we find the lowest basal signal of the high control. The signal at this time (Tx) is used to subtract from the signal at 450 min. Results are expressed in RFU, as difference between T450 and Tx.
as §2

[3] = test system: Abeta 1-42 produced and secreted by SKNBE2 cells expressing hAPP695; assay: Cellular αLisa assay in SKNBE2 cells - Abeta 42; format: cell-based, human; conditions: Homo sapiens, incubated for 18 hours, read-out: Cellular αLisa assay in SKNBE2 cells Abeta 42 pIC50 (converted)
Protocol: Cellular αLisa Assay in SKNBE2 Cells
In two αLisa assays the levels of Abeta total and Abeta 1-42 produced and secreted into the medium of human neuroblastoma SKNBE2 cells are quantified. The assay is based on the human neuroblastoma SKNBE2 expressing the wild type Amyloid Precursor Protein (hAPP695). The compounds are diluted and added to these cells, incubated for 18 hours and then measurements of Abeta 1-42 and Abeta total are taken. Abeta total and Abeta 1-42 are measured by sandwich αLisa. αLisa is a sandwich assay using biotinylated antibody AbN/25 attached to streptavidin coated beads and antibody Ab4G8 or cAb42/26 conjugated acceptor beads for the detection of Abeta total and Abeta 1-42 respectively. In the presence of Abeta total or Abeta 1-42, the beads come into close proximity. The excitation of the donor beads provokes the release of singlet oxygen molecules that trigger a cascade of energy transfer in the acceptor beads, resulting in light emission. Light emission is measured after 1 hour incubation (excitation at […] and emission at 615 nm).
as §2

Row | Structure (SMILES) | IC50 [1] | IC50 [2] | IC50 [3]
1 | CC1(c2cc(Nc3ncccc3C#N)ccc2F)N=C(N)CC1C(F)(F)F (racemic) [Compound 22, (±)-2-[3-[(2S*,3R*)-5-amino-2-methyl-3-(trifluoromethyl)-3,4-dihydropyrrol-2-1]-4-fluoro-anilino]pyridine-3-carbonitrile] | ≥ 10000 nM | 3720 nM | 776 nM
2 | C[C@@]1(c2cc(NC(=O)c3ccc(C#N)cn3)ccc2F)N=C(N)C[C@@H]1C(F)(F)F [Compound 25, N-[3-[(2R,3S)-5-amino-2-methyl-3-(trifluoromethyl)-3,4-dihydropyrrol-2-yl]-4-fluoro-phenyl]-5-cyano-pyridine-2-carboxamide] | 1070 nM | 182 nM | 60.3 nM
3 | C[C@]1(c2cc(NC(=O)c3ccc(C#N)cn3)ccc2F)N=C(N)C[C@H]1C(F)(F)F [Compound 26, N-[3-[(2S,3R)-5-amino-2-methyl-3-(trifluoromethyl)-3,4-dihydropyrrol-2-yl]-4-fluoro-phenyl]-5-cyano-pyridine-2-carboxamide] | > 10000 nM | > 10000 nM | > 8910 nM
4 | COc1cnc(C(=O)Nc2ccc(F)c([C@]3(C)N=C(N)C[C@@H]3C(F)(F)F)c2)cn1 [Compound 27, N-[3-[(2R,3S)-5-amino-2-methyl-3-(trifluoromethyl)-3,4-dihydropyrrol-2-yl]-4-fluoro-phenyl]-5-methoxy-pyrazine-2-carboxamide] | 5890 nM | 389 nM | 100 nM
5 | COc1cccnc1Nc1ccc(F)c([C@]2(C)N=C(N)C[C@@H]2C(F)(F)F)c1 [Compound 28, N-[3-[(2R,3S)-5-amino-2-methyl-3-(trifluoromethyl)-3,4-dihydropyrrol-2-yl]-4-fluoro-phenyl]-3-methoxy-pyridin-2-amine] | 617 nM | 1200 nM | 347 nM
6 | COCCOc1cnc(C(=O)Nc2ccc(F)c([C@]3(C)N=C(N)C[C@@H]3C(F)(F)F)c2)cn1 [Compound 29, N-[3-[(2R,3S)-5-amino-2-methyl-3-(trifluoromethyl)-3,4-dihydropyrrol-2-yl]-4-fluoro-phenyl]-5-(2-methoxyethoxy)pyrazine-2-carboxamide] | > 20000 nM | 447 nM | 151 nM
7 | COCCOc1cnc(C(=O)Nc2ccc(F)c([C@@]3(C)N=C(N)C[C@H]3C(F)(F)F)c2)cn1 [Compound 30, N-[3-[(2S,3R)-5-amino-2-methyl-3-(trifluoromethyl)-3,4-dihydropyrrol-2-yl]-4-fluoro-phenyl]-5-(2-methoxyethoxy)pyrazine-2-carboxamide] | > 20000 nM | > 10000 nM | > 8910 nM
8 | C[C@@]1(c2cc(NC(=O)c3cnc(OCC(F)(F)F)cn3)ccc2F)N=C(N)C[C@@H]1C(F)(F)F [Compound 31, N-[3-[(2R,3S)-5-amino-2-methyl-3-(trifluoromethyl)-3,4-dihydropyrrol-2-yl]-4-fluoro-phenyl]-5-(2,2,2-trifluoroethoxy)pyrazine-2-carboxamide] | > 20000 nM | 457 nM | 257 nM
9 | C[C@]1(c2cc(NC(=O)c3cnc(OCC(F)(F)F)cn3)ccc2F)N=C(N)C[C@H]1C(F)(F)F [Compound 32, N-[3-[(2S,3R)-5-amino-2-methyl-3-(trifluoromethyl)-3,4-dihydropyrrol-2-yl]-4-fluoro-phenyl]-5-(2,2,2-trifluoroethoxy)pyrazine-2-carboxamide] | > 20000 nM | > 10000 nM | > 8910 nM
10 | C[C@@]1(c2cc(NC(=O)c3ccc(Br)cn3)ccc2F)N=C(N)C[C@@H]1C(F)(F)F [Compound 33, N-[3-[(2R,3S)-5-amino-2-methyl-3-(trifluoromethyl)-3,4-dihydropyrrol-2-yl]-4-fluoro-phenyl]-5-bromo-pyridine-2-carboxamide] | 513 nM | 229 nM | 36.3 nM
11 | COc1cnc(C(=O)Nc2ccc(F)c([C@@]3(C)N=C(N)C[C@H]3C(F)(F)F)c2)cn1 [Compound 34, N-[3-[(2S,3R)-5-amino-2-methyl-3-(trifluoromethyl)-3,4-dihydropyrrol-2-yl]-4-fluoro-phenyl]-5-methoxy-pyrazine-2-carboxamide] | – | > 10000 nM | –

Now from value to compound:

Row | IC50 [1] | IC50 [2] | IC50 [3] | Structure (SMILES)
12 | – | > 10000 nM | – | Cc1nc(C(=O)Nc2ccc(F)c([C@]3(C)N=C(N)C[C@@H]3C(F)(F)F)c2)co1 [Compound 35, N-[3-[(2R,3S)-5-amino-2-methyl-3-(trifluoromethyl)-3,4-dihydropyrrol-2-yl]-4-fluoro-phenyl]-2-methyl-oxazole-4-carboxamide]
13 | – | 1020 nM | – | Cc1nc(C(=O)Nc2ccc(F)c([C@@]3(C)N=C(N)C[C@H]3C(F)(F)F)c2)co1 [Compound 36, N-[3-[(2S,3R)-5-amino-2-methyl-3-(trifluoromethyl)-3,4-dihydropyrrol-2-yl]-4-fluoro-phenyl]-2-methyl-oxazole-4-carboxamide]
14 | – | > 10000 nM | – | COc1cccnc1Nc1ccc(F)c([C@@]2(C)N=C(N)C[C@H]2C(F)(F)F)c1 [Compound 37, N-[3-[(2S,3R)-5-amino-2-methyl-3-(trifluoromethyl)-3,4-dihydropyrrol-2-yl]-4-fluoro-phenyl]-3-methoxy-pyridin-2-amine]
15 | – | > 10000 nM | – | C[C@]1(c2cc(Nc3ncccc3C#N)ccc2F)N=C(N)C[C@H]1C(F)(F)F [Compound 38, 2-[3-[(2S,3R)-5-amino-2-methyl-3-(trifluoromethyl)-3,4-dihydropyrrol-2-yl]-4-fluoro-anilino]pyridine-3-carbonitrile]
16 | – | 2950 nM | – | C[C@@]1(c2cc(Nc3ncccc3C#N)ccc2F)N=C(N)C[C@@H]1C(F)(F)F [Compound 39, 2-[3-[(2R,3S)-5-amino-2-methyl-3-(trifluoromethyl)-3,4-dihydropyrrol-2-yl]-4-fluoro-anilino]pyridine-3-carbonitrile]
17 | – | > 10000 nM | – | C[C@]1(c2cc(NC(=O)c3ccc(Br)cn3)ccc2F)N=C(N)C[C@H]1C(F)(F)F [Compound 41, N-[3-[(2S,3R)-5-amino-2-methyl-3-(trifluoromethyl)-3,4-dihydropyrrol-2-yl]-4-fluoro-phenyl]-5-bromo-pyridine-2-carboxamide]
